# Experimental data reported in patent US20020187534A1, “Treating cancer by increasing intracellular malonyl CoA levels” (priority 1999, published 2002).
# Assays:
# [1] = system: SKBR3 and MCF7 human breast cancer cells; assay: Clonogenic assay (Example 2); type: cell-based; settings: for cytotoxicity in clonogenic assays: inhibitors 6 hours, dose range for ACC or FAS inhibition
# Procedure: Cells and inhibitors were as described for Example 1. For clonogenic assays, 4×10^5 cells were plated in […] flasks with inhibitors added for 6 hours in concentrations listed. Equal numbers of treated cells and controls were plated in 60 mm dishes. Clones were stained and counted after 7 to 10 days.
# [2] = system: fatty acid synthesis in MCF-7 xenografts and liver; assay: Ex vivo [U-14C]-acetate labeling of tumor and liver of xenografted mice; type: in vivo, mouse; settings: 30 mg/kg intraperitoneal, within 3 hours
# Procedure: In a parallel experiment to determine fatty acid synthesis activity in treated and control tumors, a group of MCF-7 xenografted mice were treated with C75 or vehicle at above doses and sacrificed after 3 hours. Tumor and liver tissue were ex vivo labeled with [U^14-C] acetate, lipids were extracted and counted as described (Pizer, et al, 1996).
# [3] = system: SKBR3 and MCF7 human breast cancer cell lines; assay: Fatty acid synthesis activity, [U-14C]-acetate pulse labeling of lipids; type: cell-based; settings: for [U14C-acetate] incorporation into lipids: SKBR3 and MCF7, labeled for 2 hours after exposure to inhibitor; for dose range of maximal inhibition of FA synthesis: all cell lines tested
# Procedure: The human breast cancer cell lines, SKBR3 and MCF7 were maintained in RPMI with 10% fetal bovine serum. Cells were screened periodically for Mycoplasma contamination (Gen-probe). All inhibitors were added as stock 5 mg/ml solutions in DMSO. For fatty acid synthesis activity determinations, 5×10^4 cells/well in 24 well plates were pulse labeled with [U-^14C]-acetate after exposure to drug, and lipids were extracted and quantified as described previously (Pizer, et al., 1988). For MCF7 cells, pathway activity was determined after 2 hours of inhibitor exposure.
# MCF-7 xenografts [4] = assay: Histology of treated xenograft tumors; type: in vivo, mouse; settings: 6 hours after 30 mg/kg
# Procedure: (§1) In an additional parallel experiment to histologically examine treated and control tumors, 6 C75 treated and 6 vehicle control mice were sacrificed 6 hours after treatment. Tumor and normal tissues were fixed in neutral-buffered formalin, processed for routine histology, and immunohistochemistry for FAS was performed. Immunohistochemistry for FAS was performed on the MCF-7 xenografts using a mouse monoclonal anti-FAS antibody (Alo, et al., 1996) at 1:2000 on the Dako Immunostainer using the LSAB2 detection kit.
# MCF-7 cells [5] = assay: Malonyl-CoA levels by reversed phase HPLC; type: cell-based, human; settings: for malonyl-CoA levels increased over controls: 1 hour exposure at 10 μg/ml
# Procedure: Malonyl-CoA levels were measured in MCF-7 cells using the HPLC method of Corkey, et al. (1988, “Analysis of acyl-coenzyme A esters in biological samples,” Methods in Enzymology, 166:55-70). Briefly, 2.5×10^5 cells/well in 24 well plates were subjected to 1.2 ml of 10% TCA at 4° C. after various drug treatments. The pellet mass was recorded and the supernatant was washed 6 times with 1.2 ml of ether and reduced to dryness using vacuum centrifugation at 25° C. Coenzyme-A esters were separated and quantitated using reversed phase HPLC on a 5μ Supelco C18 column with a Waters HPLC system running Millenium^32 software monitoring 254 nm as the maximum absorbance for coenzyme-A. The following gradients and buffers were utilized: Buffer A: 0.1 M potassium phosphate, pH 5.0, Buffer B: 0.1 M potassium phosphate, pH 5.0, with 40% acetonitrile. Following a 20 min. isocratic run with 92% A, 8% B at 0.4 ml/min, flow was increased to 0.8 ml/min over one minute whereupon a linear gradient to 10% B was run until 24 min. then held at 10% B until 50 min. where a linear gradient was run to 100% B at 55 min., completing at 60 min. The following coenzyme-A esters (Sigma) were run as standards: malonyl-CoA, acetyl-CoA, glutathione-CoA, succinyl-CoA, HMG-CoA, and free CoA. Samples and standards were dissolved in 50 μl of buffer A. Coenzyme-A esters eluted sequentially as follows: malonyl-CoA, glutathione-CoA, free CoA, succinyl-CoA, HMG-CoA, and acetyl-CoA. Quantitation of coenzyme-A esters was performed by the Millenium^32 software.
# [6] = Single dose LD10 determination; type: in vivo; settings: BALB/c mice
# MCF-7 cells [7] = assay: Cell growth inhibition assay, crystal violet; type: cell-based, human; settings: for growth inhibition: 48 hours after treatment, Example 12
# [8] = Toxicity to host in nude mice (tolerability, histology of liver and other host tissues, weight); type: in vivo, mouse
# Procedure: (§2) Treatment began when measurable tumors developed about 10 days after inoculation. Eleven mice (divided among two separate experiments of 5 and 6 mice each) were treated intraperitoneally with wcekly doses of C75 at 30 mg/kg in 0.1 ml RPMI. […] Eleven control mice (divided in the same way as the treatment groups) received RPMI alone. Tumor volume was measured with calipers in three dimensions. Experiment was terminated when controls reached the surrogate endpoint.
# as §1
# MCF-7 xenografts [9] = assay: Growth of subcutaneous MCF-7 xenografts in athymic nude mice; type: in vivo, mouse; settings: 30 mg/kg intraperitoneal weekly, after 32 days
# Procedure: Subcutaneous flank xenografts of the human breast cancer cell line, MCF-7 in nu/nu female mice (Harlan) were used to study the anti-tumor effects of C75 in vivo. All animal experiments complied with institutional animal care guidelines. All mice received a 90-day slow-release subcutaneous estrogen pellet (Innovative Research) in the anterior flank 7 days before tumor inoculation. […] MCF-7 cells were xenografted from culture in DMEM supplemented with 10% FBS and insulin 10 μg/ml.
# as §2
# CPT-1 = assay: Carnitine palmitoyltransferase-1 (CPT-1) assay in permeabilized MCF-7 cells; type: cell-based, human
# Procedure: MCF-7 cells were plated in RPMI 1640 with 10% fetal bovine serum at 1×10^6 cells in six-well plates in triplicate. Following overnight incubation at 37° C., medium was removed and replaced with 700 μl of assay medium consisting of: 50 mM imidazole, 70 mM KCl, 80 mM sucrose, 1 mM EGTA, 2 mM MgCl2, 1 mM DTT, 1 mM KCN, 1 mM ATP, 0.1% fatty acid free bovine serum albumin, 70 μM palmitoyl-CoA, 0.25 μCi (methyl-^14C]L-camitine, 40 μg digitonin with or without 20 μM malonyl-CoA or other indicated inhibitors.
# After incubation for 3 or 6 minutes at 37° C., the reaction was stopped by the addition of 500 μl of ice-cold 4 M perchloric acid. Cells were then harvested and centrifuged at 10,000× g for 5 min. The pellet was washed with 500 μl ice cold perchloric acid and centrifuged again. The resulting pellet was resuspended in 800 μl dH2O and extracted with 150 μl of butanol. The butanol phase was counted by liquid scintillation and represents the acylcarnitine derivative.
# MCF-7 cells [10] = assay: Clonogenic assay (Example 11); type: cell-based, human; settings: 6 h exposure; TOFA at 5 μg/ml
# Procedure: After overnight incubation at 37° C., 1×10^6 MCF-7 cells were exposed to drugs as indicated for 6 h, washed, detached by trypsin digestion, counted and plated at 1000 or 500 cells/60-mm plate in triplicate. Colonies were stained with crystal violet and counted 4-6 days after plating. Controls consisted of cells incubated with DMSO without drugs. Error bars represent standard error of the mean.
# [11] = in vivo; cited from earlier work
# MCF-7 cells [12] = assay: Fatty acid oxidation, 14CO2 released from [14C]palmitate; type: cell-based, human
# Procedure: Fatty acid oxidation was measured by trapping and counting the ^14CO2 released from the oxidation of [^14C]palmitate in base. 1×10^6 MCF-7 cells were plated in T-25 flasks in triplicate and incubated overnight at 37° C. […] After 2 hours, medium with drugs was removed and cells were preincubated for 30 minutes with 1.5 ml of the following buffer: 114 mM NaCl, 4.7 mM KCI, 1.2 mM KH2PO4, 1.2 mM MgSO4, glucose 11 mM. After preincubation, 200 μl of assay buffer was added containing: 114 mM NaCl, 4.7 mM KCl, 1.2 mM KH2PO4, 1.2 mM MgSO4, glucose 11 mM, 2.5 mM palmitate (containing with 100 μCi of [1-^14C]palmitate) bound to albumin, 0.4 mM L-camitine, and cells were incubated at 37° C. for 2 hours. Following the incubation, 400 μl of benzothonium hydrochloride was added to the center well to collect released ^14CO2. […] The flasks with wells were then incubated for 2 hours at 37° C. after which the benzothonium hydrochloride was removed and counted for ^14C.
# SKBR3 and MCF7 cells = assay: Apoptosis by multiparameter flow cytometry, merocyanine 540 staining; type: cell-based, human
# Procedure: Apoptosis was measured by multiparameter flow cytometry using a FACStar^Plus flow cytometer equipped with argon and krypton lasers (Becton Dickinson). Apoptosis was quantified using merocyanine 540 staining (Sigma), which detects altered plasma membrane phospholipid packing that occurs early in apoptosis, added directly to cells from culture (Pizer, et al., 1998; Mower, et al., 1994, “Decreased membrane pospholipid packing and decreased cell size precede DNA cleavage in mature mouse B cell apoptosis, J. Immunol., 152:4832-4842). In some experiments, chromatin conformational changes of apoptosis were simultaneously measured as decreased staining with LDS-751 (Exciton) (Frey, et al., 1995, “Nucleic acid dyes for detection of apoptosis in live cells,” Cytometry, 21:265-274). […] Cells were stained with LDS-751 at a final concentration of 100 nM from a 1 mM stock in DMSO. The merocyanine 540-positive cells were marked by an increase in red fluorescence, collected at 575+/−20 nm, 0.5 to 2 logs over merocyanine 540-negative cells. […] Data were collected and analyzed using CellQuest software (Becton Dickinson). In these experiments, all LDS-751 dim cells were merocyanine 540 bright, however a population of merocyanine 540 bright cells were detected that were not yet LDS-751 dim. All merocyanine 540 bright cells were classified as apoptotic.
# M-CPT-1 = settings: cited from earlier work
compound,measurement,setting,value
C=C1C(=O)OC(CCCCCCCC)C1C(=O)O (stereo not shown) [C75],cytotoxicity in clonogenic assays,[1],significantly cytotoxic
same,reduction of fatty acid synthesis in MCF-7 xenografts,[2],70%
same,reduction of fatty acid synthesis in ex vivo labeled liver,[2],76%
same,[U14C-acetate] incorporation into lipids,[3],inhibited
same,dose range of maximal inhibition of FA synthesis,[3],~10 µg/mL
same,tumor histology,MCF-7 xenografts [4],numerous apoptotic bodies throughout the tumor tissue
same,malonyl-CoA levels increased over controls,MCF-7 cells [5],370%
same,LD10,[6],40 mg/kg
same,growth inhibition,MCF-7 cells [7],significant growth inhibition over control
same,tolerability,"[8]; 30 mg/kg, outbred nude mice",well tolerated
same,histological analysis of liver and other host tissues,[8]; following C75 treatment,no evidence of any short or long term toxicity
same,toxicity noted,[8]; weekly intraperitoneal treatment,transient reversible weight loss was the only toxicity noted
same,difference in tumor growth compared to vehicle controls,MCF-7 xenografts [9],greater than eight-fold
O=C([O-])C1(CCCCCCOc2ccc(Cl)cc2)CO1.[Na+] (stereo not shown) [Etomoxir],reduction in CPT-1 activity,CPT-1; 10 μg/ml,75%
same,cytotoxicity in clonogenic assay,MCF-7 cells [10],not significantly cytotoxic
same,toxicity in humans treated for diabetes,[11],without significant toxicity or weight loss
same,reduction in growth,"MCF-7 cells [7]; 200 μg/ml, the only effective dose",significant reduction in growth
same,growth inhibition,MCF-7 cells [7],significant growth inhibition over control
same,growth inhibition or cytotoxicity,"MCF-7 cells [7]; doses known to inhibit CPT-1 and fatty acid oxidation, 48 or 72 h, Example 10",no significant growth inhibition or cytotoxicity
same,growth inhibition of MCF-7 cells,"MCF-7 cells [7]; over 72 h, Example 7",dose dependent growth inhibition of MCF-7 cells over 72 h greater than that of C75 at 5 μg/ml
same,fatty acid oxidation decreased over control,MCF-7 cells [12]; 50 μg/ml,> 50%
"CCCCCCCCCCCCCCOc1ccc(C(=O)O)o1 [TOFA, 5-(tetradecyloxy)-2-furoic acid]",reduction in clonogenicity,[1],no reduction
same,TOFA rescue of C75 cytotoxicity in clonogenic assay,[1]; MCF7 cells,modest rescue
same,TOFA rescue of cerulenin cytotoxicity in clonogenic assay,[1]; MCF7 cells,modest rescue
same,cytotoxicity in clonogenic assays,[1],non-toxic or stimulatory
same,[U14C-acetate] incorporation into lipids,[3],inhibited
same,dose range of maximal inhibition of FA synthesis,[3],1 to 5 µg/mL
same,increase in apoptosis,SKBR3 and MCF7 cells,< 5%
same,TOFA rescue from cerulenin induced apoptosis,SKBR3 and MCF7 cells; SKBR3 and MCF7 cells,rescued cells from cerulenin induced apoptosis
same,direct inhibition of CPT-1,CPT-1,does not cause CPT-1 inhibition
same,reduction of malonyl-CoA levels,MCF-7 cells [5]; 20 μg/ml,60%
same,cytotoxicity in clonogenic assay,MCF-7 cells [10],not significantly cytotoxic
same,changes in fatty acid oxidation,MCF-7 cells [12]; data not shown,nor does TOFA cause significant changes in fatty acid oxidation
C/C=C/C/C=C/CCC(=O)[C@H]1O[C@H]1C(N)=O [cerulenin],reduction in clonogenicity,[1],70%
same,cytotoxicity in clonogenic assays,[1],significantly cytotoxic
same,reduction in fatty acid synthesis,"[3]; MCF-7, 10 μg/ml, within 2 hours",> 50%
same,[U14C-acetate] incorporation into lipids,[3],inhibited
same,dose range of maximal inhibition of FA synthesis,[3],~10 µg/mL
same,apoptosis,SKBR3 and MCF7 cells,> 85%
same,increase in malonyl-CoA,MCF-7 cells [5]; 10 μg/ml,nine-fold
same,malonyl-CoA levels increased over controls,MCF-7 cells [5],930%
same,reduction in fatty acid oxidation compared to control,"MCF-7 cells [12]; 10 μg/ml, 2 hours",~50%
CC(C)(COP(=O)(O)OP(=O)(O)OC[C@H]1O[C@@H](n2cnc3c(N)ncnc32)[C@H](O)[C@@H]1OP(=O)(O)O)[C@@H](O)C(=O)NCCC(=O)NCCSC(=O)CC(=O)O [malonyl-CoA],sensitivity of M-CPT-1 versus L-CPT-1 to malonyl-CoA inhibition,M-CPT-1,100 fold
